Tests used:
Homo sapiens [1] = species: Homo sapiens; test: Selectivity for p38alpha MAP kinase (unknown origin) over ZAK (unknown origin)
Homo sapiens [2] = species: Homo sapiens; test: Selectivity for p38alpha MAP kinase (unknown origin) over WNK2 (unknown origin)
Homo sapiens [3] = species: Homo sapiens; test: Selectivity for p38alpha MAP kinase (unknown origin) over VEGF-R3 (unknown origin)
Homo sapiens [4] = species: Homo sapiens; test: Selectivity for p38alpha MAP kinase (unknown origin) over VEGF-R1 (unknown origin)
Homo sapiens [5] = species: Homo sapiens; test: Selectivity for p38alpha MAP kinase (unknown origin) over TTK (unknown origin)
Homo sapiens [6] = species: Homo sapiens; test: Selectivity for p38alpha MAP kinase (unknown origin) over SRPK1 (unknown origin)
Homo sapiens [7] = species: Homo sapiens; test: Selectivity for p38alpha MAP kinase (unknown origin) over SRMS (unknown origin)
Homo sapiens [8] = species: Homo sapiens; test: Selectivity for p38alpha MAP kinase (unknown origin) over SNK (unknown origin)
Homo sapiens [9] = species: Homo sapiens; test: Selectivity for p38alpha MAP kinase (unknown origin) over SGK3 (unknown origin)
Homo sapiens [10] = species: Homo sapiens; test: Selectivity for p38alpha MAP kinase (unknown origin) over RPS6KA5 (unknown origin)
Homo sapiens [11] = species: Homo sapiens; test: Selectivity for p38alpha MAP kinase (unknown origin) over RPS6KA1 (unknown origin)
Homo sapiens [12] = species: Homo sapiens; test: Selectivity for p38alpha MAP kinase (unknown origin) over BTK (unknown origin)
Homo sapiens [13] = species: Homo sapiens; test: Selectivity for p38alpha MAP kinase (unknown origin) over ASK1 (unknown origin)
Homo sapiens [14] = species: Homo sapiens; test: Selectivity for p38alpha MAP kinase (unknown origin) over ARK5 (unknown origin)
Homo sapiens [15] = species: Homo sapiens; test: Selectivity for p38alpha MAP kinase (unknown origin) over ABL1 Q252H mutant (unknown origin)
Homo sapiens [16] = species: Homo sapiens; test: Selectivity for p38alpha MAP kinase (unknown origin) over ROCK1 (unknown origin)
Homo sapiens [17] = species: Homo sapiens; test: Selectivity for p38alpha MAP kinase (unknown origin) over RIPK2 (unknown origin)
Homo sapiens [18] = species: Homo sapiens; test: Selectivity for p38alpha MAP kinase (unknown origin) over PKC-nu (unknown origin)
Homo sapiens [19] = species: Homo sapiens; test: Selectivity for p38alpha MAP kinase (unknown origin) over PKC-iota (unknown origin)
Homo sapiens [20] = species: Homo sapiens; test: Selectivity for p38alpha MAP kinase (unknown origin) over PKC-beta2 (unknown origin)
Homo sapiens [21] = species: Homo sapiens; test: Selectivity for p38alpha MAP kinase (unknown origin) over PKC-beta1 (unknown origin)
Homo sapiens [22] = species: Homo sapiens; test: Selectivity for p38alpha MAP kinase (unknown origin) over PDGFR-alpha D842V mutant (unknown origin)
Homo sapiens [23] = species: Homo sapiens; test: Selectivity for p38alpha MAP kinase (unknown origin) over PAK2 (unknown origin)
Homo sapiens [24] = species: Homo sapiens; test: Selectivity for p38alpha MAP kinase (unknown origin) over PAK1 (unknown origin)
Homo sapiens [25] = species: Homo sapiens; test: Selectivity for p38alpha MAP kinase (unknown origin) over NEK4 (unknown origin)
[26] = biological target: T1, Mitogen-activated protein kinase 14 (Homo sapiens, UniProt Q16539); test: Competitive inhibition of p38alpha MAP kinase (unknown origin) in presence of 300 uM ATP
T1 sequence (Q16539 whole entry): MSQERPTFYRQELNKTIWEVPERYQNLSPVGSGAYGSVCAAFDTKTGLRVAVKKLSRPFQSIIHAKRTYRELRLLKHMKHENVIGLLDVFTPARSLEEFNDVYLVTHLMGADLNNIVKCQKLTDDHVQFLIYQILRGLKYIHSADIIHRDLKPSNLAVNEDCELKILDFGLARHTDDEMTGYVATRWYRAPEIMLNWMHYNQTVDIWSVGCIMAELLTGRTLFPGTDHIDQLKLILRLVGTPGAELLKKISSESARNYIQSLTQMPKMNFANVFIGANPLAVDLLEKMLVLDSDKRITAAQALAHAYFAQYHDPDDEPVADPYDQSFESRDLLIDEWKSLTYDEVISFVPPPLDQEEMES

[27] = biological target: T1, Mitogen-activated protein kinase 14; test: Inhibition of p38alpha MAP kinase in human whole blood assessed as inhibition of LPS-induced TNFalpha release by ELISA
[28] = biological target: Mitogen-activated protein kinase 11 (Homo sapiens) (UniProt Q15759); test: Inhibition of p38beta MAP kinase (unknown origin) at 10 uM
Mitogen-activated protein kinase 11 (Homo sapiens), sequence (Q15759 whole entry): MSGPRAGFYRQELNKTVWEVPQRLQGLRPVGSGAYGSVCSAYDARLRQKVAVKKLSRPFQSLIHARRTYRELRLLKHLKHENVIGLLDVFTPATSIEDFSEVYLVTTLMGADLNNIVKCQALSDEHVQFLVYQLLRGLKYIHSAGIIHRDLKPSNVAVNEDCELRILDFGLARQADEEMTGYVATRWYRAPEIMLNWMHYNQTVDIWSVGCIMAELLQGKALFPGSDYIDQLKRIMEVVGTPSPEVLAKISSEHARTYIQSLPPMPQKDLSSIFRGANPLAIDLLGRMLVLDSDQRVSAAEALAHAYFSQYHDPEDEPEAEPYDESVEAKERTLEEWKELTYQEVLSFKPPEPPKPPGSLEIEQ

Homo sapiens [29] = species: Homo sapiens; test: Selectivity for p38alpha MAP kinase (unknown origin) over MINK1 (unknown origin)
Homo sapiens [30] = species: Homo sapiens; test: Selectivity for p38alpha MAP kinase (unknown origin) over wild type MET (unknown origin)
Homo sapiens [31] = species: Homo sapiens; test: Selectivity for p38alpha MAP kinase (unknown origin) over MET F1200I mutant (unknown origin)
Homo sapiens [32] = species: Homo sapiens; test: Selectivity for p38alpha MAP kinase (unknown origin) over MET D1228H mutant (unknown origin)
Homo sapiens [33] = species: Homo sapiens; test: Selectivity for p38alpha MAP kinase (unknown origin) over MEK2 (unknown origin)
Homo sapiens [34] = species: Homo sapiens; test: Selectivity for p38alpha MAP kinase (unknown origin) over IRAK4 (unknown origin)
Homo sapiens [35] = species: Homo sapiens; test: Selectivity for p38alpha MAP kinase (unknown origin) over INS-R (unknown origin)
Homo sapiens [36] = species: Homo sapiens; test: Selectivity for p38alpha MAP kinase (unknown origin) over IKK-alpha (unknown origin)
Homo sapiens [37] = species: Homo sapiens; test: Selectivity for p38alpha MAP kinase (unknown origin) over GRK7 (unknown origin)
Homo sapiens [38] = species: Homo sapiens; test: Selectivity for p38alpha MAP kinase (unknown origin) over FGF-R2 (unknown origin)
Homo sapiens [39] = species: Homo sapiens; test: Selectivity for p38alpha MAP kinase (unknown origin) over FER (unknown origin)
Homo sapiens [40] = species: Homo sapiens; test: Selectivity for p38alpha MAP kinase (unknown origin) over ERBB4 (unknown origin)
Homo sapiens [41] = species: Homo sapiens; test: Selectivity for p38alpha MAP kinase (unknown origin) over EPHB4 (unknown origin)
Homo sapiens [42] = species: Homo sapiens; test: Selectivity for p38alpha MAP kinase (unknown origin) over EGFR T790M mutant (unknown origin)
Homo sapiens [43] = species: Homo sapiens; test: Selectivity for p38alpha MAP kinase (unknown origin) over EGFR G719S mutant (unknown origin)
Homo sapiens [44] = species: Homo sapiens; test: Selectivity for p38alpha MAP kinase (unknown origin) over DAPK2 (unknown origin)
Homo sapiens [45] = species: Homo sapiens; test: Selectivity for p38alpha MAP kinase (unknown origin) over CLK1 (unknown origin)
Homo sapiens [46] = species: Homo sapiens; test: Selectivity for p38alpha MAP kinase (unknown origin) over CK1-alpha1 (unknown origin)

Selectivity ratio (Homo sapiens [1]): > 1000
Selectivity ratio (Homo sapiens [2]): > 1000
Selectivity ratio (Homo sapiens [3]): > 1000
Selectivity ratio (Homo sapiens [4]): > 1000
Selectivity ratio (Homo sapiens [5]): > 1000
Selectivity ratio (Homo sapiens [6]): > 1000
Selectivity ratio (Homo sapiens [7]): > 1000
Selectivity ratio (Homo sapiens [8]): > 1000
Selectivity ratio (Homo sapiens [9]): > 1000
Selectivity ratio (Homo sapiens [10]): > 1000
Selectivity ratio (Homo sapiens [11]): > 1000
Selectivity ratio (Homo sapiens [12]): > 1000
Selectivity ratio (Homo sapiens [13]): > 1000
Selectivity ratio (Homo sapiens [14]): > 1000
Selectivity ratio (Homo sapiens [15]): > 1000
Selectivity ratio (Homo sapiens [16]): > 1000
Selectivity ratio (Homo sapiens [17]): > 1000
Selectivity ratio (Homo sapiens [18]): > 1000
Selectivity ratio (Homo sapiens [19]): > 1000
Selectivity ratio (Homo sapiens [20]): > 1000
Selectivity ratio (Homo sapiens [21]): > 1000
Selectivity ratio (Homo sapiens [22]): > 1000
Selectivity ratio (Homo sapiens [23]): > 1000
Selectivity ratio (Homo sapiens [24]): > 1000
Selectivity ratio (Homo sapiens [25]): > 1000
IC50 [26]: 4 nM
IC50 [27]: 125 nM
inhibition [28]: > 50%
Selectivity ratio (Homo sapiens [29]): > 1000
Selectivity ratio (Homo sapiens [30]): > 1000
Selectivity ratio (Homo sapiens [31]): > 1000
Selectivity ratio (Homo sapiens [32]): > 1000
Selectivity ratio (Homo sapiens [33]): > 1000
Selectivity ratio (Homo sapiens [34]): > 1000
Selectivity ratio (Homo sapiens [35]): > 1000
Selectivity ratio (Homo sapiens [36]): > 1000
Selectivity ratio (Homo sapiens [37]): > 1000
Selectivity ratio (Homo sapiens [38]): > 1000
Selectivity ratio (Homo sapiens [39]): > 1000
Selectivity ratio (Homo sapiens [40]): > 1000
Selectivity ratio (Homo sapiens [41]): > 1000
Selectivity ratio (Homo sapiens [42]): > 1000
Selectivity ratio (Homo sapiens [43]): > 1000
Selectivity ratio (Homo sapiens [44]): > 1000
Selectivity ratio (Homo sapiens [45]): > 1000
Selectivity ratio (Homo sapiens [46]): > 1000
SMILES: Cc1cc(F)c(NC(=O)c2ccsc2)cc1Nc1ccc2c(c1)OCc1ccc(OC[C@H](O)CO)cc1C2=O

Reference: ChEMBL document CHEMBL3085714 (J Med Chem, 2013)
